Series [1] relates to p53 signaling (p53RE-bla HCT-116 cells). In words: cells. The class given is cell-based.
The test system is the same in series [2]. In words: cells. Type of series: cell-based. The source holds these as a separate data set.
Series [3] has the same test system. Kind of series: cells. Type of series: cell-based. As to conditions: for Emax: HCT-116, read-out: efficacy.
Series [4] has the same test system.
The test system is the same in series [5]. This is another data set of the same source.
The conditions of series [6]: rat.
Series [7] deals with p53 signaling (p53RE-bla HCT-116 cells). In words: cells. Particulars: Homo sapiens.
Series [8] has the same test system. Kind of series: cells. Particulars: Homo sapiens, HCT-116, read-out: p53 activation EC50, HLM.
A short description of another series: in vitro. As to conditions: male, Sprague Dawley, rat, microsomes, pH 7.4.
[9] abbreviates: read-out: p53 activation EC50, RLM.
The mark [10] stands for this setting: HCT-116, read-out: p53 activation EC50, RLM.
The mark [11] stands for this setting: HCT-116, read-out: p53 activation EC50, cherry pick confirmation.
The mark [12] stands for this setting: HCT-116, read-out: p53 activation efficacy, cherry pick confirmation.

The source of these data is article PMC9151520 (Archives of Toxicology, 2022).

The structures appear in SMILES notation. Read-outs that look alike come from different tables or passages of the source.

Take `CCOP(=O)(OCC)OC(=CCl)c1ccc(Cl)cc1Cl` [Chlorfenvinphos]: in series [1], the “p53 activation EC50, No MS” value is “inactive” and the “p53 activation Efficacy, No MS” value is “inactive”. In series [2] (Homo sapiens, HCT-116, 0.5 h), this compound gave a half-maximal effective concentration (EC50) of 0.02 µM. In series [3] (Homo sapiens, HCT-116), the half-maximal effective concentration (EC50) amounted to 2.54 µM. For the same compound, the concentration for a half-maximal effect (EC50) in series [4] (setting [9]) was 2.08 µM. For the same compound, the “p53 activation EC50, HLM” value in series [5] was “inactive”. Further, in the series on p53RE-bla HCT-116 cells, the “Viability EC50, HLM” value was “inactive”; the “Viability EC50, No MS” value is “inactive”; the “Viability EC50, RLM” value was “inactive”; the “Viability Efficacy, HLM” value was “inactive”. Besides, in the series on p53RE-bla HCT-116 cells, the “Viability Efficacy, No MS” value is “inactive” and the “Viability Efficacy, RLM” value is “inactive”. For the same compound, the “Depletion after 16 h of incubation with cells” value (“Depletion after 16 h” below) in series [6] stood at 55.04 ± 4.69%. This compound also returned a 50% effective concentration (EC50) in series [7] (HCT-116) of 6.36 µM. For the same compound, the Emax in series [7] (HCT-116, read-out: efficacy) is 66.8%. The concentration giving a half-maximal response (EC50) in series [7] (setting [10]) came out at 3.8 µM. Moreover, in series [8], the concentration for a half-maximal effect (EC50) was 3.05 µM. Moreover, the half-life in “in vitro” came to 28.6 ± 1.85 min.
Consider `CCOP(=S)(OCC)Oc1nc(Cl)c(Cl)cc1Cl` [Chlorpyrifos], for which, in series [1], the “activity outcome in p53-bla assay” value is “inactive”; the “p53 activation EC50, No MS” value was “inactive”; the “p53 activation Efficacy, No MS” value is “inactive”. Besides, in [2], the EC50 result is on record as “Inactive”. Also, the EC50 in series [3] (Homo sapiens, HCT-116) was 3.75 µM. In series [3] (Homo sapiens), the Emax is 45.2%. In series [4], the “activity outcome in p53-bla assay” value is recorded as “activator of p53 signaling”. Besides, in series [4] (setting [9]), the concentration for a half-maximal effect (EC50) worked out at 2.8 µM. Further, the “p53 activation EC50, HLM” value in series [5] was “inactive”. In the series on p53RE-bla HCT-116 cells, the “Viability EC50, HLM” value is “inactive”; the “Viability EC50, No MS” value is “inactive”; the “Viability EC50, RLM” value was “inactive”; the “Viability Efficacy, HLM” value was “inactive”. Moreover, in the series on p53RE-bla HCT-116 cells, the “Viability Efficacy, No MS” value was “inactive” and the “Viability Efficacy, RLM” value is “inactive”. Also, the “Depletion after 16 h” value in series [6] is given as 92.74 ± 1.38%. Moreover, it took 3.47 µM to reach a half-maximal effect in [7] (HCT-116) (EC50). In addition, in series [7] (HCT-116, read-out: efficacy), the Emax is 50.6%. For the same compound, the EC50 in [7] (setting [10]) worked out at 2.92 µM. In addition, in series [8], the EC50 stood at 1.78 µM. Besides, the half-life in the series “in vitro” came out at 1.11 ± 0.07 min.
`CCOP(=S)(NC(C)C)Oc1ccccc1C(=O)OC(C)C` (stereo not shown) [Isofenphos]: in series [1], the “p53 activation EC50, cherry pick confirmation” value is “inactive”; the “p53 activation EC50, primary screening” value is “inactive”; the “p53 activation efficacy, cherry pick confirmation” value was “inactive”; the “p53 activation efficacy, primary screening” value is “inactive”. For the same compound, in [2], the concentration for a half-maximal effect (EC50) entry is “Inactive”. The compound also showed an EC50 in series [3] (Homo sapiens, HCT-116) of 0.81 µM. In addition, in series [3] (Homo sapiens), the Emax was 54.3%. In addition, in series [5], the “p53 activation EC50, cherry pick confirmation” value is “inactive” and the “p53 activation efficacy, cherry pick confirmation” value is “inactive”. Besides, in the series with p53RE-bla HCT-116 cells, the “Viability EC50, cherry pick confirmation” value was “inactive”; the “Viability EC50, primary screening” value was “inactive”; the “Viability efficacy, cherry pick confirmation” value is “inactive”; the “Viability efficacy, primary screening” value is “inactive”. Besides, the “Depletion after 16 h” value in series [6] is 88.45 ± 1.49%. Also, in [7] (HCT-116), the 50% effective concentration (EC50) was 0.75 µM. Also, the Emax in series [7] (HCT-116, read-out: efficacy) is 42.6%. Further, in [7] (setting [11]), the EC50 stood at 0.777 µM. Moreover, the Emax in series [7] (setting [12]) was determined as 42.6%. This compound registered a half-life in the series “in vitro” of 1.25 ± 0.47 min.
For the compound `CCOP(=S)(OCC)Oc1cc(-c2ccccc2)on1` [Isoxathion], in [1], the “p53 activation EC50, No MS” value is “inactive” and the “p53 activation Efficacy, No MS” value was “inactive”. Besides, the EC50 in series [2] (Homo sapiens, HCT-116, 0.5 h) turned out to be 27.5 µM. In [3] (Homo sapiens, HCT-116), this compound returned an EC50 of 9.77 µM. Besides, in series [5], the “p53 activation EC50, HLM” value is “inactive”. For the same compound, in the series on p53RE-bla HCT-116 cells, the “Viability EC50, HLM” value was “inactive”; the “Viability EC50, No MS” value is “inactive”; the “Viability EC50, RLM” value is “inactive”; the “Viability Efficacy, HLM” value was “inactive”. In the series on p53RE-bla HCT-116 cells, the “Viability Efficacy, No MS” value is “inactive” and the “Viability Efficacy, RLM” value is “inactive”. The “Depletion after 16 h” value in series [6] was 94.65 ± 0.45%. Moreover, the EC50 in [7] (HCT-116) stood at 8.62 µM. Further, the Emax in [7] (HCT-116, read-out: efficacy) was 46%. The EC50 in [8] is 4.45 µM. For the same compound, the half-life in “in vitro” was determined as 2.77 ± 0.25 min.
Regarding `CCSC(=O)N1CCCCCC1` [Molinate], the “p53 activation EC50, cherry pick confirmation” value in [1] and in [5] was “inactive” in each case. Further, the “p53 activation EC50, primary screening” value in series [1] and in [5] was “inactive” each time. Besides, the “p53 activation efficacy, cherry pick confirmation” value in series [1] and in series [5] was “inactive” in each case. Moreover, the “p53 activation efficacy, primary screening” value in [1] and in [5] was “inactive” throughout. The concentration giving a half-maximal response (EC50) result in [2] was “Inactive”; in [3] (Homo sapiens, HCT-116), 0.3 µM; in [7] (HCT-116), 0.35 µM; in [7] (setting [11]), 0.355 µM; in series [7] (HCT-116, read-out: p53 activation EC50, primary screening), 1.85 µM. In addition, the Emax is 44.1% in series [3] (Homo sapiens); 40.5% in series [7] (HCT-116, read-out: efficacy); 39.9% in series [7] (setting [12]); 45.3% in series [7] (HCT-116, read-out: p53 activation efficacy, primary screening). In addition, the “Viability EC50, cherry pick confirmation” value with p53RE-bla HCT-116 cells is “inactive”. Also, the “Viability EC50, primary screening” value in the series with p53RE-bla HCT-116 cells was “inactive”. Besides, the “Viability efficacy, cherry pick confirmation” value with p53RE-bla HCT-116 cells is “inactive”. Further, the “Viability efficacy, primary screening” value in the series with p53RE-bla HCT-116 cells is “inactive”. For the same compound, the “Depletion after 16 h” value in series [6] is listed as 97.58 ± 0.19%. The half-life in “in vitro” was determined as 12 ± 0.18 min.
Turning to `CCOP(=S)(OCC)Oc1cnc2ccccc2n1` [Quinalphos], in [1], the “p53 activation EC50, cherry pick confirmation” value is “inactive”; the “p53 activation EC50, primary screening” value is “inactive”; the “p53 activation efficacy, cherry pick confirmation” value was “inactive”; the “p53 activation efficacy, primary screening” value was “inactive”. Besides, in [2], the EC50 result is on record as “Inactive”. Further, the EC50 result in series [3] is “Inactive”. In series [5], the “p53 activation EC50, cherry pick confirmation” value is “inactive” and the “p53 activation efficacy, cherry pick confirmation” value is “inactive”. Moreover, in the series on p53RE-bla HCT-116 cells, the “Viability EC50, cherry pick confirmation” value is “inactive”; the “Viability EC50, primary screening” value was “inactive”; the “Viability efficacy, cherry pick confirmation” value was “inactive”; the “Viability efficacy, primary screening” value was “inactive”. Moreover, the “Depletion after 16 h” value in series [6] was 96.66 ± 0.83%. Also, the half-maximal effective concentration (EC50) in series [7] (HCT-116) came out at 9.46 µM. In addition, in series [7] (HCT-116, read-out: efficacy), the Emax was 32.7%. Moreover, the EC50 in series [7] (setting [11]) worked out at 7.65 µM. The Emax in series [7] (setting [12]) was 34.3%. In “in vitro”, this compound showed a half-life of 2.49 ± 0.04 min.
For the compound `CCOP(=S)(Oc1cnc(C(C)(C)C)nc1)OC(C)C` (stereo not shown) [Tebupirimfos], the “p53 activation EC50” value in [1] and in [5] was “inactive” each time. For the same compound, the p53 activation efficacy result is “inactive” in series [1] and 42.005 in series [4]. The half-maximal effective concentration (EC50) in [2] (Homo sapiens, HCT-116, 0.5 h) was found to be 2.17 µM; in [3] (Homo sapiens, HCT-116), 1.32 µM; in [4] (read-out: p53 activation EC50), 1.63 µM; in [7] (HCT-116), 1.23 µM. Besides, the “Viability EC50” value with p53RE-bla HCT-116 cells was “inactive”. Moreover, the Viability efficacy entry with p53RE-bla HCT-116 cells was “inactive”. The “Depletion after 16 h” value in series [6] was 94.85 ± 0.13%. The Emax in series [7] (HCT-116, read-out: efficacy) was 43.4%. Further, the half-life in “in vitro” was 3.59 ± 0.08 min.
Take `CCN(CC)C(=O)SCc1ccc(Cl)cc1` [Thiobencarb]: the “p53 activation EC50” value in [1] and in [5] was “inactive” each time. The results for the p53 activation efficacy entry in series [1] and in [4] were “inactive” and 51.3593, respectively. Also, the EC50 in series [2] (Homo sapiens, HCT-116, 0.5 h) came to 1.68 µM; in [3] (Homo sapiens, HCT-116) it was 1.84 µM; in series [4] (read-out: p53 activation EC50), 1.63 µM; in [7] (HCT-116), 5.52 µM. Moreover, the “Viability EC50” value in the series on p53RE-bla HCT-116 cells is “inactive”. Besides, the Viability efficacy result with p53RE-bla HCT-116 cells was “inactive”. Moreover, the “Depletion after 16 h” value in series [6] is reported as 98.6 ± 0.04%. For the same compound, in series [7] (HCT-116, read-out: efficacy), the Emax is 71.8%. Also, the half-life in the series “in vitro” came out at 1.48 ± 0.54 min.
Take `Cc1ccccc1OP(=O)(Oc1ccccc1C)Oc1ccccc1C` [Tri-o-cresyl phosphate]: in [1], the “p53 activation EC50, No MS” value was “inactive” and the “p53 activation Efficacy, No MS” value was “inactive”. The 50% effective concentration (EC50) in series [2] (Homo sapiens, HCT-116, 0.5 h) worked out at 15.8 µM. In series [3] (Homo sapiens, HCT-116), the concentration giving a half-maximal response (EC50) was 3.14 µM. Besides, the “p53 activation EC50, HLM” value in [5] was “inactive”. Besides, in the series on p53RE-bla HCT-116 cells, the “Viability EC50, HLM” value was “inactive”; the “Viability EC50, No MS” value was “inactive”; the “Viability EC50, RLM” value is “inactive”; the “Viability Efficacy, HLM” value was “inactive”. In the series with p53RE-bla HCT-116 cells, the “Viability Efficacy, No MS” value is “inactive” and the “Viability Efficacy, RLM” value is “inactive”. Also, the “Depletion after 16 h” value in [6] amounted to 93.36 ± 0.84%. Also, the EC50 in series [7] (HCT-116) stood at 5.32 µM. The Emax in series [7] (HCT-116, read-out: efficacy) is 59.6%. For the same compound, in series [8], the EC50 was 1.12 µM. Besides, the half-life in “in vitro” worked out at 1.17 ± 0.08 min.

Broadly, the EC50 is the concentration at which the effect is half-maximal. Usually half-life stands for how long it takes for the measured level to halve.
